SMILES strings stand for the structures. pIC50: −log10 of the molar value. The source made the active and inactive calls. No cut-off for these calls is given here.

By pIC50 is commonly meant the IC50 on a negative log10 scale, so that one unit is a factor of ten.

The subject of experiment [1] is Glycine max. As to the kind of experiment: (§1) Inhibition of soybean 15-lipoxygenase.
Experiment [2] concerns Glycine max. The experiment can be described thus: Inhibition of soybean 15-lipoxygenase assessed as rate of disappearance of dissolved oxygen at 50 uM relative to control. Set-up: scale not given: the % may be the effect or the level left.
The test system of experiment [3] is Glycine max. As to the kind of experiment: Inhibition of soybean 15-lipoxygenase assessed as rate of disappearance of dissolved oxygen at 25 uM relative to control. More on the design: scale not given: the % may be the effect or the level left.
Experiment [4] is described as follows: Inhibition of cyclooxygenase assessed as rate of disappearance of dissolved oxygen at 2.4 uM relative to control. More on the design: scale not given: the % may be the effect or the level left.
The target in experiment [5] is T1, Polyunsaturated fatty acid 5-lipoxygenase (Homo sapiens) (UniProt P09917).
T1 sequence (whole entry): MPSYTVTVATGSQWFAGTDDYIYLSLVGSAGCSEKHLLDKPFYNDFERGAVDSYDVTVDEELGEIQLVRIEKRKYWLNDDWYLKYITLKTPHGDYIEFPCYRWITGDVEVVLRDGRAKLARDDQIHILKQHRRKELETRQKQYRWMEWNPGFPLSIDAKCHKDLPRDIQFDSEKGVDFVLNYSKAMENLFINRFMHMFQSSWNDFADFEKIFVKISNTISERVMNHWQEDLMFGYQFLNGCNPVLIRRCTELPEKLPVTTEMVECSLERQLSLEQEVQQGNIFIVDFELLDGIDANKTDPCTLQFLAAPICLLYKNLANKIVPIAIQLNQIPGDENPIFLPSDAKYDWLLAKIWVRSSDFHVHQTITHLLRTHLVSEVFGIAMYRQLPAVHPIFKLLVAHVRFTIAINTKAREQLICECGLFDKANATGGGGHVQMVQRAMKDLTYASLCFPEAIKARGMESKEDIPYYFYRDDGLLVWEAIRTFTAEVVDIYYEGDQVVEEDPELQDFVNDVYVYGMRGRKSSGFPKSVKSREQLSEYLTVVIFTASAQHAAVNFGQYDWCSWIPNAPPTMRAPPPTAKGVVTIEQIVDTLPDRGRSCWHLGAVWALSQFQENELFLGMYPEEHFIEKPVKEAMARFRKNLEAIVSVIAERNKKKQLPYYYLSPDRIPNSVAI
As to the kind of experiment: Inhibition of human recombinant 5-lipoxygenase assessed as rate of disappearance of dissolved oxygen at 25 uM relative to control. Set-up: scale not given: the % may be the effect or the level left.

Experiment [6] has as its system Glycine max. As to the kind of experiment: Inhibition of soybean 15-lipoxygenase assessed as rate of disappearance of dissolved oxygen at 6.75 uM relative to control. Set-up: scale not given: the % may be the effect or the level left.
Experiment [7] in a line: as §1. Set-up: species or system Glycine max.
Experiment [8] deals with Glycine max. The experiment can be described thus: Inhibition of soybean 15-lipoxygenase assessed as rate of disappearance of dissolved oxygen at 12.5 uM relative to control. More on the design: scale not given: the % may be the effect or the level left.
Experiment [9] is described as follows: Inhibition of cyclooxygenase assessed as rate of disappearance of dissolved oxygen at 25 uM relative to control. More on the design: scale not given: the % may be the effect or the level left.
For experiment [10], the system named is Glycine max. As to the kind of experiment: Inhibition of soybean 15-lipoxygenase assessed as rate of disappearance of dissolved oxygen at 100 uM relative to control. More on the design: scale not given: the % may be the effect or the level left.
Experiment [11] is described as follows: Inhibition of cyclooxygenase assessed as rate of disappearance of dissolved oxygen at 50 uM relative to control. More on the design: scale not given: the % may be the effect or the level left.
Experiment [12] addresses T1, Polyunsaturated fatty acid 5-lipoxygenase (Homo sapiens). The experiment can be described thus: Inhibition of human recombinant 5-lipoxygenase assessed as rate of disappearance of dissolved oxygen at 50 uM relative to control. Set-up: scale not given: the % may be the effect or the level left.

Take `CC(=O)OC[C@H](OC(C)=O)[C@H](OC(C)=O)[C@@H](CC[C@@H](C)[C@H]1CC[C@]2(C)[C@H]3CC[C@@H]4[C@@]5(C)CCCC(C)(C)[C@@H]5CC[C@@]4(C)[C@]3(C)CC[C@@H]12)OC(C)=O`: the outcome with Glycine max [1] was inactive. Also, the Activity turned out to be 114% in the experiment on Glycine max [2] and 89% in the experiment on Glycine max [3].

For `COc1ccc2c(c1)c(CC(=O)O)c(C)n2C(=O)c1ccc(Cl)cc1`, in [4], the Activity amounted to 7%.

As for `C[C@H](CC[C@@H](O)[C@@H](O)[C@@H](O)CO[C@@H]1O[C@H](CO)[C@@H](O)[C@H](O)[C@H]1N)[C@H]1CC[C@]2(C)[C@H]3CC[C@@H]4[C@@]5(C)CCCC(C)(C)[C@@H]5CC[C@@]4(C)[C@]3(C)CC[C@@H]12`, the Activity is 188% in the experiment with Glycine max [2] and 172% in the experiment on Glycine max [3].

For `C[C@H](CC[C@@H](O)[C@@H](O)[C@@H](O)CO[C@H]1[C@H](N)[C@@H](O)[C@H](O)[C@@]1(O)CO)[C@H]1CC[C@]2(C)[C@H]3CC[C@@H]4[C@@]5(C)CCCC(C)(C)[C@@H]5CC[C@@]4(C)[C@]3(C)CC[C@@H]12`, the Activity came out at 250% in the experiment with Glycine max [2] and 151% in the experiment on Glycine max [3].

Turning to `O=C1CCN(c2ccccc2)N1`, the Activity came out at 34% in the experiment with Glycine max [3] and 55% in [5].

As to `C[C@H](CC[C@@H](O)[C@@H](O)[C@@H](O)CO)[C@H]1CC[C@]2(C)[C@H]3CC[C@@H]4[C@@]5(C)CCCC(C)(C)[C@@H]5CC[C@@]4(C)[C@]3(C)CC[C@@H]12` [TETRAHYDROXYBACTERIOHOPANE], the Activity in the experiment with Glycine max [6] was 68%; with Glycine max [2], 4%; with Glycine max [3], 15%; in the experiment with Glycine max [8], 48%; in experiment [5], 98%; in [9], 102%. The Activity was determined as 11% in the experiment with Glycine max [10], 103% in experiment [11] and 97% in experiment [12]. The negative-log IC50 (pIC50) in experiment [7] is 5.00.

For the origin of these results see ChEMBL document CHEMBL1158316, “Modulation of lipoxygenase activity by bacterial hopanoids” (J Nat Prod, 1997).
